Data: the supplement of paper PMC10307832

Tests used:
Assay in all cases: relative viability (nuclei count vs DMSO), 5 days (fraction); higher = more cells survive
Bleomycin + Alpelisib = compound: CC1=C(N=C(N=C1N)[C@H](CC(=O)N)NC[C@@H](C(=O)N)N)C(=O)N[C@@H]([C@H](C2=CN=CN2)OC3C(C(C(C(O3)CO)O)O)OC4C(C(C(C(O4)CO)O)OC(=O)N)O)C(=O)N[C@H](C)[C@H]([C@H](C)C(=O)N[C@@H]([C@@H](C)O)C(=O)NCCC5=NC(=CS5)C6=NC(=CS6)C(=O)NCCC[S+](C)C)O [Bleomycin] + Cc1nc(NC(=O)N2CCC[C@H]2C(N)=O)sc1-c1ccnc(C(C)(C)C(F)(F)F)c1 [Alpelisib] (partner 2 µM); conditions: main component drawn
Procedure, shortened: (§1)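 One day after seeding in 1536-well plates, lung cancer cell lines were dosed by pin tool. Dosing was either single-drug or a fixed anchor-drug dose plus five library-drug doses (not always all listed) in √10 steps. After 5 days, nuclei were stained in one fix-and-stain step and counted on 4× images, and relative viability is the nuclei count of treated wells over that of vehicle wells, given as the median of duplicate plates.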

Etoposide + Foretinib = compound: COc1cc([C@@H]2c3cc4c(cc3[C@@H](O[C@@H]3O[C@@H]5CO[C@@H](C)O[C@H]5[C@H](O)[C@H]3O)[C@H]3COC(=O)[C@H]23)OCO4)cc(OC)c1O [Etoposide] + COc1cc2c(Oc3ccc(NC(=O)C4(C(=O)Nc5ccc(F)cc5)CC4)cc3F)ccnc2cc1OCCCN1CCOCC1 [Foretinib] (partner 0.25 µM)
Procedure, shortened: as §1

Bleomycin + Dasatinib = compound: CC1=C(N=C(N=C1N)[C@H](CC(=O)N)NC[C@@H](C(=O)N)N)C(=O)N[C@@H]([C@H](C2=CN=CN2)OC3C(C(C(C(O3)CO)O)O)OC4C(C(C(C(O4)CO)O)OC(=O)N)O)C(=O)N[C@H](C)[C@H]([C@H](C)C(=O)N[C@@H]([C@@H](C)O)C(=O)NCCC5=NC(=CS5)C6=NC(=CS6)C(=O)NCCC[S+](C)C)O [Bleomycin] + Cc1nc(Nc2ncc(C(=O)Nc3c(C)cccc3Cl)s2)cc(N2CCN(CCO)CC2)n1 [Dasatinib] (partner 0.075 µM); conditions: main component drawn
Procedure, shortened: as §1

Etoposide + Phenformin = compound: COc1cc([C@@H]2c3cc4c(cc3[C@@H](O[C@@H]3O[C@@H]5CO[C@@H](C)O[C@H]5[C@H](O)[C@H]3O)[C@H]3COC(=O)[C@H]23)OCO4)cc(OC)c1O [Etoposide] + N=C(N)NC(=N)NCCc1ccccc1 [Phenformin] (partner 250 µM)
Procedure, shortened: as §1

Row | Cell Line | relative viability (Bleomycin + Alpelisib; first compound 0.01 µM) | relative viability (Bleomycin + Alpelisib; first compound 0.03162 µM) | relative viability (Bleomycin + Alpelisib; first compound 0.1 µM) | relative viability (Bleomycin + Alpelisib; first compound 0.3162 µM) | relative viability (Bleomycin + Alpelisib; first compound 1 µM) | relative viability (Etoposide + Foretinib; first compound 0.01 µM) | relative viability (Etoposide + Foretinib; first compound 0.03162 µM) | relative viability (Etoposide + Foretinib; first compound 0.1 µM) | relative viability (Etoposide + Foretinib; first compound 0.3162 µM) | relative viability (Etoposide + Foretinib; first compound 1 µM) | relative viability (Bleomycin + Dasatinib; first compound 0.01 µM) | relative viability (Bleomycin + Dasatinib; first compound 0.03162 µM) | relative viability (Bleomycin + Dasatinib; first compound 0.1 µM) | relative viability (Bleomycin + Dasatinib; first compound 0.3162 µM) | relative viability (Bleomycin + Dasatinib; first compound 1 µM) | relative viability (Etoposide + Phenformin; first compound 0.01 µM) | relative viability (Etoposide + Phenformin; first compound 0.03162 µM) | relative viability (Etoposide + Phenformin; first compound 0.1 µM) | relative viability (Etoposide + Phenformin; first compound 0.3162 µM) | relative viability (Etoposide + Phenformin; first compound 1 µM)
1 | Calu-6 | 0.63 | 0.603 | 0.333 | 0.181 | 0.177 | 0.825 | 0.922 | 0.921 | 0.41 | 0.234 |  |  |  |  |  |  |  |  |  | 
2 | ChaGo-K-1 |  |  |  |  |  | 0.781 | 0.978 | 0.8 | 0.281 | 0.21 | 0.529 | 0.552 | 0.533 | 0.246 | 0.264 | 0.423 | 0.546 | 0.471 | 0.282 | 0.169
3 | EBC-1 | 0.777 | 0.718 | 0.696 | 0.501 | 0.404 | 0.119 | 0.107 | 0.12 | 0.102 | 0.107 |  |  |  |  |  |  |  |  |  | 
4 | EKVX | 0.894 | 0.738 | 0.683 | 0.345 | 0.37 | 1.09 | 0.711 | 0.448 | 0.237 | 0.303 | 0.56 | 0.435 | 0.502 | 0.276 | 0.26 | 0.262 | 0.271 | 0.196 | 0.254 | 0.178
5 | EMC-BAC-2 | 0.647 | 0.643 | 0.653 | 0.355 | 0.232 | 0.918 | 1.05 | 0.612 | 0.302 | 0.238 | 0.293 | 0.277 | 0.259 | 0.144 | 0.115 | 0.424 | 0.483 | 0.309 | 0.24 | 0.197
6 | EPLC-272H | 0.889 | 0.847 | 0.797 | 0.308 | 0.176 | 0.626 | 0.722 | 0.552 | 0.61 | 0.255 | 0.35 | 0.36 | 0.272 | 0.149 | 0.0954 | 0.281 | 0.308 | 0.267 | 0.263 | 0.226
7 | H3255 | 0.532 | 0.69 | 0.508 | 0.335 | 0.305 | 0.974 | 0.897 | 0.603 | 0.674 | 0.457 | 0.356 | 0.448 | 0.426 | 0.332 | 0.327 | 0.35 | 0.404 | 0.353 | 0.322 | 0.305
8 | HARA | 0.682 | 0.784 | 0.818 | 0.415 | 0.373 | 0.703 | 0.9 | 0.291 | 0.534 | 0.187 | 0.297 | 0.322 | 0.251 | 0.186 | 0.104 | 0.507 | 0.407 | 0.504 | 0.366 | 0.178
